One block for each molecule: values may come before it.
Key:
[1] = biological target: T1, iNOS (Mus musculus, UniProt P29477); conditions: cited from earlier work
T1 sequence (P29477 1-1144): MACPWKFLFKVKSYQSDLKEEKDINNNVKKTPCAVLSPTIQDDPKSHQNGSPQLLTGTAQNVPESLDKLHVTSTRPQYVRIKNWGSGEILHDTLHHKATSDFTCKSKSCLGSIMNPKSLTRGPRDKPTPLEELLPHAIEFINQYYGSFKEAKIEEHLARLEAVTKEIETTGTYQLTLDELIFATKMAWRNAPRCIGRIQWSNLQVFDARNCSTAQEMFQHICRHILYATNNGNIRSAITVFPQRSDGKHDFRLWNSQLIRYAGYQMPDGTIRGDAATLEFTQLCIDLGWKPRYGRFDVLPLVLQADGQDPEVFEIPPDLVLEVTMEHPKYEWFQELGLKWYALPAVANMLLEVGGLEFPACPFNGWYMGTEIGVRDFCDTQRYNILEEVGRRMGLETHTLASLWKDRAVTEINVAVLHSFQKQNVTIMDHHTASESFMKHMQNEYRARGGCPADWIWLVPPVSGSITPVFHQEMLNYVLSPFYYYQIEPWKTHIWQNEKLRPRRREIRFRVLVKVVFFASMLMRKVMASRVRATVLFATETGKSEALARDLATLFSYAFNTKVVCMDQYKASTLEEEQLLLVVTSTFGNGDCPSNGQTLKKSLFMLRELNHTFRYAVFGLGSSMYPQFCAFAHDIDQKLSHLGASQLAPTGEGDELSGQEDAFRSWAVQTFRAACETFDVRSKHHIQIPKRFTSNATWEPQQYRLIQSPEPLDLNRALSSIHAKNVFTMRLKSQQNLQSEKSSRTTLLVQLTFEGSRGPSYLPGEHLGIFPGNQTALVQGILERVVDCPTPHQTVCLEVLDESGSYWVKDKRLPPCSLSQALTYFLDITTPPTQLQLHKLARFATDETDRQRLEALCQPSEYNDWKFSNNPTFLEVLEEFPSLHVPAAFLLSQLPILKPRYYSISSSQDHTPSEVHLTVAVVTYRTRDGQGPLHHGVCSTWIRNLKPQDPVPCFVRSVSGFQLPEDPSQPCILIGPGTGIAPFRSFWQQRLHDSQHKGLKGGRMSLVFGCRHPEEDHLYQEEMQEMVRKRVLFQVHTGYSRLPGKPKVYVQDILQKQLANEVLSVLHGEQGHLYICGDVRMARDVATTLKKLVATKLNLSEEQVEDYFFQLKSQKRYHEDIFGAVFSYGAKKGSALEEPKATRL

[2] = biological target: T2, Δ122-iNOSox (Homo sapiens, UniProt P35228); assay: Binding assay of ^3H-compound A with Δ122-iNOSox (gel filtration mini column, scintillation counting); conditions: Δ122-iNOSox protein
T2 construct: genes of the oxygenase domain region (amino acids 1 to 526) by PCR; His tag; made in house; host or cells: E. coli, protease-deficient DE3 strain; vector pTrcHis2 (Invitrogen)
Description: A binding assay system for ^3H-compound A (25Ci/mmol) was constructed using Δ122-iNOSox obtained in Example 9. In principle, it is an assay system in which the binding strength of a compound towards iNOS can be analyzed by measuring the amount of ^3H-compound A replaced by various test drugs added to bound Δ122-iNOSox protein and ^3H-compound A (10 nM) . That is, to 100 μL of a Δ122-iNOSox solution that has been diluted to a final concentration of 1 μg/mL with 25 mM Tris-HCl (pH 7.5) containing 150 mM NaCl and 1% CHAPS, 1 μL of 1 μM ^3H-compound A was added and was incubated for 3 hours at 4° C., then the entire amount was applied to a gel filtration mini column for desalting (NICK column; Pharmacia) that was pre-equilibrated with 25 mM Tris-HCl (pH 7.5) containing 150 mM NaCl. Next, 400 μL of the same buffer was added, the eluted solution was mixed with 7 mL of aquasol, and this was measured with a liquid scintillation counter.

[3] = biological target: T3, ^14C-A-bound protein in RAW cells (Mus musculus, UniProt P29477); assay: Dose dependency of ^14C-A binding activity in LPS/IFN-stimulated RAW264.7 cell extract; assay type: cell-based; conditions: RAW264.7 cells, LPS/IFN stimulation
T3 construct: endogenous in cells; host or cells: RAW264.7 mouse macrophage cells stimulated with LPS and IFN-γ
T3 sequence (P29477 1-1144): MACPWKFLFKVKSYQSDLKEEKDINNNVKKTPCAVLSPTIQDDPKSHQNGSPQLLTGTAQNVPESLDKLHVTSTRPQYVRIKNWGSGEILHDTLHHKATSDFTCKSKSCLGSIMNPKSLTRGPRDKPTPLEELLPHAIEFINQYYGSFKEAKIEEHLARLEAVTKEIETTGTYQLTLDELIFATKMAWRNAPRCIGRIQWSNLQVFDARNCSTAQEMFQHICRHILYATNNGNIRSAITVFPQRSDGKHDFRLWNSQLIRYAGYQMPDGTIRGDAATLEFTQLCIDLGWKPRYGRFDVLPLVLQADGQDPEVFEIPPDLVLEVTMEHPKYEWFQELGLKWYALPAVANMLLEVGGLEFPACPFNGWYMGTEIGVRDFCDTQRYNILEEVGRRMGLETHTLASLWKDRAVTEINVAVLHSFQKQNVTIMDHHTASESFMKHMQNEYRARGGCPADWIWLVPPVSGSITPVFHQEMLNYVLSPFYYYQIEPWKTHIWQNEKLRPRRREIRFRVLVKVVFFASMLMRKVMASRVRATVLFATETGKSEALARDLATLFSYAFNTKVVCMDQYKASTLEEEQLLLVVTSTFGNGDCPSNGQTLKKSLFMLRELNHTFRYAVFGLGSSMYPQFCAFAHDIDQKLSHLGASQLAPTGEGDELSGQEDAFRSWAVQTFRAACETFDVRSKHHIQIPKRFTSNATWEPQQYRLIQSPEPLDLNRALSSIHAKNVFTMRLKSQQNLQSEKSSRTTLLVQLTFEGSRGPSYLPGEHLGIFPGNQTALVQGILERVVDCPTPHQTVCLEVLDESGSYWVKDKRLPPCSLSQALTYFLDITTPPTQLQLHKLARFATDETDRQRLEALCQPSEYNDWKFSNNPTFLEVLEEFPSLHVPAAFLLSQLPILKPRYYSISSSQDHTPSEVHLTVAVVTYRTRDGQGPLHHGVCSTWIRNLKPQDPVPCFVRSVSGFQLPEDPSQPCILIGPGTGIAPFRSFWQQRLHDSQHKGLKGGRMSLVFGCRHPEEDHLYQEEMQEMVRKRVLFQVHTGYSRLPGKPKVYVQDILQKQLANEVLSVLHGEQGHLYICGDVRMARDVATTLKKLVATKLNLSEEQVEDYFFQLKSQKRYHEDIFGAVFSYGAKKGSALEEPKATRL
Description: (§1) Mouse macrophage derived RAW264.7 cells (Stuehr D. J. Proc. Natl. Acad. Sci. USA. 1991, 88, 7773; Cancer Res. 1987, 47, 5590) were cultured in Dulbecco's Modified Eagle Medium containing 10% FCS (fetal calf serum) , until there were 2 to 4×10^7 cells in each F75 culture flask (Falcon). Then, lipopolysaccharide (LPS) and interferon-γ (IFN) were added to a final concentration of 4 μg/ml and 16 units/ml, respectively, and cultured overnight in a CO2 incubator (37° C.). 0.1% Trypsin (5 mL) was added to the flask in which the cells were cultured, the cells were detached by an incubation at 37° C. for 5 minutes, and then collected by centrifugation. To the collected cells (2,000 rpm, 10 minutes), 600 μL of lysis buffer was added, and freeze thawing was repeated three times to disrupt the cells. The supernatant obtained by centrifugation (15,000 rpm, 15 minutes) was collected and this was the cell extract. […]
(§2) Then, 200 μL of that extract was applied to Superdex 200 HR10/30 (flow rate 0.5 mL/min: Amersham Pharmacia Biotech, Sweden) pre-equilibrated with 25 mM Tris-HCl (pH 8.0) containing 150 mM NaCl to perform gel filtration chromatography. Each of the fractions collected every minute were mixed with 7 mL of Aquasol-2 (Packard, USA), and was then measured with a liquid scintillation counter (FIG. 1). ^14C-A used in this experiment was synthesized as follows.

[4] = biological target: T1, iNOS; assay: iNOS dimer/monomer detection by gel filtration and anti-iNOS dot blotting of LPS/IFN-stimulated RAW264.7 cell extract; assay type: cell-based; set-up: endogenous in cells; host or cells: RAW264.7 mouse macrophage cells stimulated with LPS and IFN-γ; conditions: RAW264.7 cells, LPS/IFN stimulation, compound A added
Description: as §1, with “centrifugation.” for “centrifugation. To the collected cells (2,000 rpm, 10 minutes), 600 μL of lysis buffer was added, and freeze thawing was repeated three times to disrupt the cells. The supernatant obtained by centrifugation (15,000 rpm, 15 minutes) was collected and this was the cell extract.”
as §2
Gel filtration fractions containing compound A binding activity, which were obtained by a method similar to that of Example 2 were analyzed by dot blotting. […]

[5] = biological target: the molecule itself; assay: gel filtration (Superdex 200) of RAW264.7 cell extract with dot blot detection; homodimer peak

T2 sequence (P35228 123-526 limits assumed, stated change not applied): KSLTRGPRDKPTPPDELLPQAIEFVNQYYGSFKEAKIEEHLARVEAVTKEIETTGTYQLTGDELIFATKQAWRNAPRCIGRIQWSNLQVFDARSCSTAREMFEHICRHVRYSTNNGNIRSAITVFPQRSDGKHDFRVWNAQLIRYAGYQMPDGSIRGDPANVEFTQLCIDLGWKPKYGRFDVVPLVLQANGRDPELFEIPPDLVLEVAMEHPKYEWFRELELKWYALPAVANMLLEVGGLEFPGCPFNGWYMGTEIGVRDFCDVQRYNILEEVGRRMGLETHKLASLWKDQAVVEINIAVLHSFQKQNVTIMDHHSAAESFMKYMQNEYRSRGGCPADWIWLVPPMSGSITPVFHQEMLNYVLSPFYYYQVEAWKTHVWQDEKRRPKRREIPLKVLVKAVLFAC

Molecule: Clc1ccc(COC(Cn2ccnc2)c2ccc(Cl)cc2Cl)c(Cl)c1 (stereo not shown) [miconazole]
effect on iNOS enzyme activity and dimerization [1]: interfered not only with enzyme activity of iNOS but also with its dimerization

Hill coefficient ([2]; Hill plot analysis): 0.971
Kd ([2]; ^3H-compound A, saturation curve and Scatchard plot): 13.5 nM
Molecule: CN(Cc1cccnc1)C(=O)[C@H](Cc1ccccc1)NC(=O)[C@H](Cc1ccccn1)NC(=O)c1cc2ccccc2o1 [compound A]
radioactivity of cell extract versus added ^14C-A concentration (saturation) [3]: saturation of radioactivity was confirmed between 10^−6 M and 10^−5 M
iNOS dimerization (dimer peak in dot blotting of gel filtration fractions) [4]: the peak corresponding to the dimer had clearly disappeared

Molecule: Clc1ccccc1C(c1ccccc1)(c1ccccc1)n1ccnc1 [clotrimazole]
effect on iNOS enzyme activity and dimerization [1]: interfered not only with enzyme activity of iNOS but also with its dimerization

B1: iNOS derived from mice (inducible nitrogen oxide synthase from LPS/IFN-stimulated RAW264.7 cells) (enzyme, mouse, UniProt P29477 1-1144, looked up)
chain: MACPWKFLFKVKSYQSDLKEEKDINNNVKKTPCAVLSPTIQDDPKSHQNGSPQLLTGTAQNVPESLDKLHVTSTRPQYVRIKNWGSGEILHDTLHHKATSDFTCKSKSCLGSIMNPKSLTRGPRDKPTPLEELLPHAIEFINQYYGSFKEAKIEEHLARLEAVTKEIETTGTYQLTLDELIFATKMAWRNAPRCIGRIQWSNLQVFDARNCSTAQEMFQHICRHILYATNNGNIRSAITVFPQRSDGKHDFRLWNSQLIRYAGYQMPDGTIRGDAATLEFTQLCIDLGWKPRYGRFDVLPLVLQADGQDPEVFEIPPDLVLEVTMEHPKYEWFQELGLKWYALPAVANMLLEVGGLEFPACPFNGWYMGTEIGVRDFCDTQRYNILEEVGRRMGLETHTLASLWKDRAVTEINVAVLHSFQKQNVTIMDHHTASESFMKHMQNEYRARGGCPADWIWLVPPVSGSITPVFHQEMLNYVLSPFYYYQIEPWKTHIWQNEKLRPRRREIRFRVLVKVVFFASMLMRKVMASRVRATVLFATETGKSEALARDLATLFSYAFNTKVVCMDQYKASTLEEEQLLLVVTSTFGNGDCPSNGQTLKKSLFMLRELNHTFRYAVFGLGSSMYPQFCAFAHDIDQKLSHLGASQLAPTGEGDELSGQEDAFRSWAVQTFRAACETFDVRSKHHIQIPKRFTSNATWEPQQYRLIQSPEPLDLNRALSSIHAKNVFTMRLKSQQNLQSEKSSRTTLLVQLTFEGSRGPSYLPGEHLGIFPGNQTALVQGILERVVDCPTPHQTVCLEVLDESGSYWVKDKRLPPCSLSQALTYFLDITTPPTQLQLHKLARFATDETDRQRLEALCQPSEYNDWKFSNNPTFLEVLEEFPSLHVPAAFLLSQLPILKPRYYSISSSQDHTPSEVHLTVAVVTYRTRDGQGPLHHGVCSTWIRNLKPQDPVPCFVRSVSGFQLPEDPSQPCILIGPGTGIAPFRSFWQQRLHDSQHKGLKGGRMSLVFGCRHPEEDHLYQEEMQEMVRKRVLFQVHTGYSRLPGKPKVYVQDILQKQLANEVLSVLHGEQGHLYICGDVRMARDVATTLKKLVATKLNLSEEQVEDYFFQLKSQKRYHEDIFGAVFSYGAKKGSALEEPKATRL
notes: Endogenous protein in cell extract and gel filtration fractions; It ran as monomer and dimer peaks without compound A and as monomer only with compound A; also called iNOS protein
binding result [5]: binds
